In one test the target is kappa opioid receptor (OPRK1) (Homo sapiens (Human), UniProt P41145). Description: OPRK1 antagonist assay (b-arrestin-2-TEV / b-lactamase reporter, EC80 U-50488 challenge). The format is cell-based. The note with it: % inhibition to which the printed IC50 value refers, if other than 50%.
Sequence of kappa opioid receptor (OPRK1) (P41145 whole entry): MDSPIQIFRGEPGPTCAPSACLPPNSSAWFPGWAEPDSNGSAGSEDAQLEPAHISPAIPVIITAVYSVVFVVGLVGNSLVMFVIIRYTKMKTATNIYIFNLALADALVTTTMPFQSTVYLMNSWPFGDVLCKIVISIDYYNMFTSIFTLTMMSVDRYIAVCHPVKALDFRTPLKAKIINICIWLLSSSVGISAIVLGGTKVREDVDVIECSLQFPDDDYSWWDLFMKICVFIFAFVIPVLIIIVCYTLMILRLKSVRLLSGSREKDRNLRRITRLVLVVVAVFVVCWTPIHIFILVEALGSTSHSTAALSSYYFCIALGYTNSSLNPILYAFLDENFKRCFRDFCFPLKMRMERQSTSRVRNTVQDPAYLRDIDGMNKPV
On to `COC(=O)c1cc(Br)cnc1N1CCC(NCCO)CC1` [compound 6], for which the “% inhib if other than 50%” value was found to be 80%. For the compound `O=C(O)c1cc(Br)cnc1N1CCC(NC2CCCCC2)CC1` [compound 34], the “% inhib if other than 50%” value is 85%.

The test is the same for the next values; noted with them: OPRK1 antagonist assay vs EC80 U-50488.
For `Cc1noc(-c2cc3cc(C)c(C)cc3nc2N2CCC(NC3CCOCC3)CC2)n1` [C90], the IC50 (usually the concentration needed to halve the response being measured) was > 10000 nM. `COC1CN(c2ncc(C)cc2-n2cc(C)cn2)CCC1NC1CCCCC1` (stereo not drawn) [C92] came in with an IC50 of 58000 nM. The compound `Cc1cnc(N2CCC(NCC(C)C)CC2)c(-c2ccc(C)nn2)c1` [C93] came in with an IC50 of 10200 nM. In turn, `COC(=O)c1cnc(N2CCC(NC3CCCCC3)C(CO)C2)c(Br)c1` (stereo not drawn) [compound 102] had an IC50 of 13000 nM.

For the compound `COC(=O)c1cnc(N2CCC(NC3CCCCC3)C(O)C2)c(Br)c1` (stereo not drawn) [compound 103], the IC50 was found to be 137 nM. Turning to `COC(=O)c1cnc(N2CC[C@@H](NC3CCCCC3)[C@H](O)C2)c(Br)c1` [compound 132], it took 4000 nM to reach half-maximal inhibition (IC50). In the case of `Cc1noc(-c2cc3c(nc2N2CC[C@@H](NC4CCCCC4)[C@H](O)C2)CCCC3)n1` [compound 192], the IC50 was found to be 199 nM.

In turn, `COC1CN(c2nc3ccc(C)cc3cc2-c2noc(C)n2)CCC1NC1CCCCC1` (stereo not drawn) [compound 314] displayed an IC50 of 2 nM. The same measure, in the same setting: for `CO[C@@H]1CN(c2nc3ccc(C)cc3cc2-c2nc(C)no2)CC[C@@H]1NC1CCCCC1` [compound 315] the value was 4 nM; for `Cc1ccc2nc(N3CCC(NC4CCCCC4)C(CO)C3)c(-c3noc(C)n3)cc2c1` (stereo not drawn) [compound 328], 0.72 nM; for `CO[C@@H]1CN(c2nc3ccccc3cc2-c2nc(C)no2)CC[C@@H]1NC1CCCCC1` [compound 329], 12.2 nM. `CCc1noc(-c2cc3cc(C)ccc3nc2N2CC[C@H](NC3CCCCC3)[C@H](OC)C2)n1` [compound 330] gave an IC50 of 4.9 nM. As for `CO[C@H]1CN(c2nc3ccccc3nc2-c2nc(C)no2)CC[C@H]1NC1CCCCC1` [compound 333], it took 6.6 nM to reach half-maximal inhibition (IC50). For the compound `CO[C@@H]1CN(c2nc3ccccc3nc2-c2nc(C)no2)CC[C@@H]1NC1CCCCC1` [compound 334], the IC50 stood at 161 nM. This IC50 is about 24-fold higher than that of the compound before. The compound `CCc1noc(-c2cc3cc(C)ccc3nc2N2CC[C@@H](NC3CCCCC3)[C@H](O)C2)n1` [compound 335] displayed an IC50 of 113 nM.

`CO[C@H]1CN(c2nc3ccc(C)cc3cc2-c2nc(C3CC3)no2)CC[C@H]1NC1CCCCC1` [compound 337] yielded a half-inhibitory concentration (IC50) of 0.73 nM. The same measure, in the same setting: the same measure for `CO[C@H]1CN(c2ncc(C)cc2-c2nc(C)no2)CC[C@H]1N(C1CCCC1)C1CCCC1` [compound 339]: 29 nM; for `CO[C@@H]1CN(c2nc3ccc(C)cc3cc2-c2nc(C3CC3)no2)CC[C@@H]1NC1CCCC1` [compound 340]: 6 nM. Take `CO[C@@H]1CN(c2ncc(C)cc2-c2nc(C)no2)CC[C@@H]1NC1CCCCC1` [compound 341]: the IC50 is 76 nM. `CO[C@@H]1CN(c2nc(C)c(C)cc2-c2nc(C)no2)CC[C@@H]1NC1CCCCC1` [compound 342] returned an IC50 of 48 nM.

Regarding `CO[C@H]1CN(c2nc3ccccc3cc2-c2ccc(C)nn2)CC[C@H]1NC1CCCCC1` [compound 344], the IC50 is 16.8 nM. Compared with the last compound, the IC50 is about 2.9-fold lower. The same measure, in the same setting: for `CO[C@@H]1CN(c2ncc(C)cc2-c2nc(C)no2)CC[C@@H]1NC1CCCC1` [compound 345] the value was 104 nM; for `CO[C@@H]1CN(c2nc(C)c(C)cc2-c2nc(C)no2)CC[C@@H]1NC1CCCC1` [compound 346], 137 nM; for `CO[C@@H]1CN(c2nc3ccc(C)cc3cc2-c2nc(C)no2)CC[C@@H]1NC1CCCC1` [compound 347], 32 nM.

`COC1CN(c2ncc(C)cc2-n2ccc(C)n2)CCC1NC1CCCCC1` (stereo not drawn) [compound 358] displayed an IC50 of 9 nM. Still for that read-out and setting: the same measure for `CO[C@H]1CN(c2nc3c(C)cc(C)cc3cc2-c2nc(C)no2)CC[C@H]1NC1CCCCC1` [compound 362]: 3 nM; for `Cc1cc(C)c2nc(N3CCC(NC4CCOCC4)CC3)c(-c3nc(C)no3)cc2c1` [compound 363]: 10 nM; for `Cc1cc(C)c2nc(N3CCC(NCC(C)C)CC3)c(-c3nc(C)no3)cc2c1` [compound 364]: 18 nM. `COC1CN(c2nc3c(C)cc(C)cc3cc2-c2nc(C)no2)CCC1NCC(C)C` (stereo not drawn) [compound 365]: it took 8 nM to reach half-maximal inhibition (IC50). `CO[C@H]1CN(c2ncc(C)cc2-n2ccc(C)n2)CC[C@H]1NC1CCCCC1` [compound 366] showed a concentration for half-maximal inhibition (IC50) of 19 nM.

In turn, `Cc1ccc2nc(N3CCC(NC4CCCCCC4)CC3)c(-c3nc(C)no3)cc2c1` [compound 367] registered an IC50 of 2 nM. On to `Cc1ccc2nc(N3CCC(NC4CCCCC4CO)CC3)c(-c3nc(C)no3)cc2c1` (stereo not drawn) [compound 368], for which half-maximal inhibition (IC50) was put at 7 nM. For the compound `Cc1ccc2nc(N3CCC(NC4CCCC4)CC3)c(-c3nc(C)no3)cc2c1` [compound 369], the IC50 was determined as 2 nM. Compound `Cc1ccc2nc(N3CCC(NC4CCC4)CC3)c(-c3nc(C)no3)cc2c1` [compound 370] gave an IC50 of 37 nM. Take `Cc1ccc2nc(N3CCC(NC4CCC[C@@H]4O)CC3)c(-c3nc(C)no3)cc2c1` (stereo partly drawn) [compound 372]: the IC50 came out at 15 nM. Against the preceding compound, the IC50 is about 2.5-fold lower.

Take `CCc1cnc(N2CCC(NC3CCCCC3)C(OC)C2)c(-c2nc(C)no2)c1` (stereo not drawn) [compound 379]: it took 525 nM to reach half-maximal inhibition (IC50). This IC50 lies about 35-fold higher than the previous one. With `COC1CN(c2ncc(C)cc2-c2cc(C)no2)CCC1NC1CCCCC1` (stereo not drawn) [compound 380], the IC50 came out at 128 nM. `Cc1cnc(N2CCC(NCC(C)C)CC2)c(-c2cc(C)no2)c1` [compound 381] displayed an IC50 of 860 nM. Compared with the last compound, the IC50 is about 6.7-fold higher.

Compound `CO[C@@H]1CN(c2ncc(C)cc2-n2ccc(C)n2)CC[C@@H]1NC1CCCCC1` [compound 383] showed an IC50 of 1160 nM. The IC50 values of the last two compounds are within 1.5-fold of each other.

On to `Cc1ccc(-c2nc(C)no2)c(N2CCC(NC3CCCCC3)C(CO)C2)n1` (stereo not drawn) [compound 386], for which the IC50 is 31 nM. Compound `Cc1ccc(-c2nc(C)no2)c(N2CCC(NC3CCCCC3)CC2)n1` [compound 387] had an IC50 of 89 nM. Regarding `Cc1cnc(N2CCC(NC3CCCCC3)CC2)c(-c2nc(C)no2)c1` [compound 388], the IC50 stood at 20 nM.

Compound `Cc1cnc(N2CCC(NC3CCOCC3)CC2)c(-c2nc(C)no2)c1` [compound 389] registered an IC50 of 153 nM. Compared with the last compound, the IC50 is about 7.7-fold higher. Compound `CCc1noc(-c2cc(C)cnc2N2CCC(NC3CCCCC3)C(OC)C2)n1` (stereo not drawn) [compound 391] returned an IC50 of 105 nM. `Cc1cnc(N2CCC(NCC(C)C)CC2)c(-c2nc(C)no2)c1` [compound 393]: the IC50 is 346 nM. This IC50 lies about 3.3-fold higher than the previous one. The compound `Cc1noc(-c2cc(C)c(C)nc2N2CCC(NCC(C)C)CC2)n1` [compound 394] yielded an IC50 of 161 nM. `CO[C@H]1CN(c2ncc(C)cc2-c2noc(C)n2)CC[C@H]1NC1CCCCC1` [compound 395]: the IC50 was found to be 49 nM. The same measure, in the same setting: the same measure for `Cc1cnc(N2CCC(NC3CCOCC3)CC2)c(-c2nc(C3CC3)no2)c1` [compound 396]: 2260 nM. For the compound `Cc1cnc(N2CCC(NCC(C)C)CC2)c(-c2nc(C3CC3)no2)c1` [compound 397], the midpoint of inhibition, the IC50, lay at 1280 nM. On to `CO[C@H]1CN(c2ncc(C)cc2-c2nc(C3CC3)no2)CC[C@H]1NC1CCCCC1` [compound 398], for which half-maximal inhibition (IC50) required 18 nM. Same read-out and setting: the same measure for `CO[C@@H]1CN(c2ncc(C)cc2-c2noc(C)n2)CC[C@@H]1NC1CCCCC1` [compound 399]: 953 nM. `Cc1cc(C(=O)N(C)C)c(N2CCC(NC3CCCCC3)CC2)nn1` [compound 400] came in with an IC50 of 279 nM. Turning to `CCOC(=O)CCNC1CCN(c2nc3ccc(C)cc3cc2-c2nc(C)no2)CC1` [compound 407], the IC50 amounted to 341 nM. On to `Cc1ccc2nc(N3CCC(NCC(C)(C)O)CC3)c(-c3noc(C)n3)cc2c1` [compound 412], for which the midpoint of inhibition, the IC50, lay at 476 nM. `Cc1ccc2nc(N3CCC(NCC(C)C)CC3)c(-c3noc(C)n3)cc2c1` [compound 413] returned an IC50 of 22 nM. Compound `Cc1ccc2nc(N3CCC(NC4CCCC4)CC3)c(-c3noc(C)n3)cc2c1` [compound 414] came in with an IC50 of 9 nM. This IC50 is about 2.4-fold lower than that of the compound before. For `Cc1ccc2nc(N3CCC(NC4CCCCCC4)CC3)c(-c3noc(C)n3)cc2c1` [compound 415], the concentration for half-maximal inhibition (IC50) stood at 3 nM. As for `CCC(CC)NC1CCN(c2nc3ccc(C)cc3cc2-c2noc(C)n2)CC1` [compound 416], the IC50 came out at 4 nM. On the same count and under the same terms, for `Cc1ccc2nc(N3CCC(NC4(C)CCOCC4)CC3)c(-c3noc(C)n3)cc2c1` [compound 417] the value was 105 nM; for `Cc1ccc2nc(N3CCC(NC4CCC[C@@H]4O)CC3)c(-c3noc(C)n3)cc2c1` (stereo partly drawn) [compound 418], 50 nM; for `Cc1ccc2nc(N3CCC(NC4CCCOC4)CC3)c(-c3noc(C)n3)cc2c1` (stereo not drawn) [compound 419], 2 nM. As for `Cc1cc(-c2noc(C)n2)c(N2CCC(NC3CCCCC3)CC2)nn1` [compound 420], the IC50 stood at 3 nM. Compared with the last compound, the IC50 is about 1.5-fold higher.

Take `Cc1ccc2nc(N3CCC(NC[C@@H](C)O)CC3)c(-c3noc(C)n3)cc2c1` [compound 423]: the IC50 was found to be 191 nM. Same read-out and setting: the same measure for `Cc1ccc2nc(N3CCC(NC[C@H](C)O)CC3)c(-c3noc(C)n3)cc2c1` [compound 424]: 422 nM. In turn, `CO[C@H]1CN(c2nc(C)ccc2-c2ccc(C)nn2)CC[C@H]1NC1CCCCC1` [compound 426] came in with an IC50 of 1970 nM.

Consider `CO[C@@H]1CN(c2nc(C)ccc2-c2ccc(C)nn2)CC[C@@H]1NC1CCCCC1` [compound 427], for which the IC50 amounted to 4600 nM.

Regarding `Cc1noc(-c2ccc(CO)nc2N2CCC(NC3CCCCC3)CC2)n1` [compound 428], inhibition was half-maximal at 101 nM (IC50).

Consider `CO[C@H]1CN(c2nc(C)ccc2-c2noc(C)n2)CC[C@H]1NC1CCCCC1` [compound 429], for which it took 214 nM to reach half-maximal inhibition (IC50). As for `CO[C@@H]1CN(c2nc(C)ccc2-c2noc(C)n2)CC[C@@H]1NC1CCCCC1` [compound 430], the IC50 came to 1000 nM. Turning to `Cc1cc(-c2noc(C)n2)c(N2CCC(NCC(C)C)CC2)nn1` [compound 431], the IC50 was 22 nM.

For the compound `Cc1ccc2nc(N3CCC(NC4CCOC4)CC3)c(-c3noc(C)n3)cc2c1` (stereo not drawn) [compound 432], the midpoint of inhibition, the IC50, lay at 22 nM. On the same count and under the same terms, for `Cc1ccc2nc(N3CCC(NC4CCCCC4)CC3)c(-c3ccc(C)nn3)cc2c1` [compound 438] the value was 75 nM; for `CO[C@H]1CN(c2nc3ccc(C)cc3cc2-c2ccc(C)nn2)CC[C@H]1NC1CCCCC1` [compound 439], 231 nM.

The values are drawn from US9682966B2, “Kappa opioid ligands” (The Scripps Research Institute, priority 2012, dated 2017).
